Columns and labels:
Format in all cases: cell-based
S. aureus (ATCC 25923) = experiment: MIC against S. aureus strain; details: Staphylococcus aureus, ATCC25923
Protocol: (§1) Stock solutions of compounds are prepared with a concentration of 10 mg/mL. These solutions are then diluted 1:4 to give a concentration of 2.5 mg/mL. The compounds are then serially diluted 1:2 for 6 iterations. The concentrations made for each compound are 2.5, 1.25, 0.625, 0.3125, 0.156, 0.078, and 0.039 mg/mL. A control sample (no compound) is run along with each compound tested. All dilutions are made in DMSO.
(§2) All wells of a 96 well microtiter plate are filled with 100 μL of BHI (Brain-Heart Infusion) broth. Columns on the plate are labeled 1-12, and rows are labeled A-H. Each column of wells is used to test one series of diluted compounds. Into each well of 100 μL of BHI broth, 1 μL of diluted compound is placed for a 1:100 dilution. This makes the final concentration of each drug series 25, 12.5, 6.25, 3.125, 1.56, 0.78, 0.39, and 0 μg/mL.
(§3) Test Organism: A sterile 15 mL screw cap tube is filled wth 3 mL of BHI broth. Next, 2-3 colonies of test organism are inoculated into the tube. The tube is then incubated at 37° C. in a CO2 (approx. 7%) atmosphere jar. The organisms are allowed to grow to the density of a 0.5 McFarland standard (10^8 cells/mL). The organism is then inoculated into each well of the microtiter plate containing the diluted compounds to be tested for MIC. The inoculum is 1 μL in volume and represents 10^5 to 10^6 cells/mL.
(§4) After inoculation the plates are covered and incubated at 37° C. and approx. 7-10% CO2 atmosphere overnight (about 16 hours). The plates are then observed for growth, the well with the lowest concentration of drug and no observable growth represents the well determining the MIC.

S. aureus (ATCC 29213) = experiment: MIC against S. aureus strain; details: Staphylococcus aureus, ATCC29213
Protocol: as §1, §2, §3, §4

S. aureus (ATCC 33591) = experiment: MIC against S. aureus strain; details: Staphylococcus aureus, ATCC33591
Protocol: as §1, §2, §3, §4

S. aureus (ATCC 33592) = experiment: MIC against S. aureus strain; details: Staphylococcus aureus, ATCC33592
Protocol: as §1, §2, §3, §4

[1] = system: ciprofloxacin-resistant Staphylococcus aureus (CRSA); experiment: Determination of MIC values (BHI broth, 96 well microtiter plate); details: MRSA, cells marked [CRSA], overnight 37° C., read-out: MIC [CRSA] (printed in MRSA column)
Procedure, shortened: (§5)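 MIC was read as the lowest drug concentration without observable growth after roughly 16 h at 37 °C under about 7–10% CO2. Wells held BHI broth with compound at final 25–0.39 μg/mL (1:100 from DMSO dilutions). Each well was inoculated at 10^5–10^6 cells/mL.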

Streptococcus pneumoniae = experiment: as above; details: Streptococcus pneumoniae; S. pneu; BHI broth, overnight 37° C.; read-out: MIC S. pneu
Procedure, shortened: as §5

[2] = system: vancomycin-resistant Enterococcus spp. (VRE); experiment: as above; details: Enterococcus, VRE, VREF; BHI broth, overnight 37° C.; read-out: MIC VREF
Procedure, shortened: as §5

S. aureus 8325-4 [3] = experiment: Lytic response (culture turbidity 600 nm) in MH broth; details: added at 5×, 10×, and 20×MIC to early log phase cultures
Protocol: (§6) Activities of the quinoline-indoles and comparator agents were determined against MSSA (n=32), MRSA (n=31) and VISA (n=7). Susceptibility testing on MH agar was performed using an inoculum of 10^6 c.f.u. Bactericidal, lytic and PAEs were determined on S. aureus 8325-4 in MH broth. Samples were removed for viable numbers on MH agar (for bactericidal response) and culture turbidity (600 nm) (for lytic response). PAEs were determined by a broth dilution method following exposure of bacteria to drugs at 5×MIC for 60 min.
The effects of the quinoline-indoles, and ciprofloxacin and rifampin (controls) on the integrity of S. aureus 8325-4 were examined following addition at 5×, 10×, and 20×MIC to early log phase cultures.
The lysis experiments were performed using classical “time kill-curve” methodology. See V. Lorian, Antibiotics in Laboratory Medicine, 4th ed., Chapter 2; Williams & Wilkins, Baltimore, 1996 (ISBN 0-683-05169-5). Bacteria (e.g., S. aureus) are exposed in liquid culture (early log phase approx […]) to multiples (typically 2×, 5×, 10×, and 20×) of the single cell agar MIC. Drug-free controls are also included. […] The samples are diluted in fresh drug-free medium and aliquots from a range of dilutions spread onto drug-free agar plates and those giving 30-300 colony forming units/plate are counted for quantification of survivors versus time of drug exposure. […]

[4] = system: methicillin-resistant Staphylococcus aureus (MRSA); experiment: Determination of MIC values (BHI broth, 96 well microtiter plate); details: Staphylococcus aureus, MRSA; read-out: MIC MRSA
Procedure, shortened: as §5

VISA-5827 = experiment: MIC against VISA strain; details: Staphylococcus aureus
Protocol: as §1, §2, §3, §4

VISA-5836 = experiment: MIC against VISA strain; details: Staphylococcus aureus
Protocol: as §1, §2, §3, §4

S. aureus 8325-4 [5] = experiment: Post-antibiotic effect (PAE), broth dilution method; details: exposed to 5×MIC for 60 min before washout; PAE = T-C
Protocol: as §6
The PAE, defined as the lag period before the target organism resumes a normal growth rate after exposure to an inhibitor, was determined for D, A, and rifampin (control) against S. aureus 8325-4. Organisms were exposed to 5×MIC for 60 min. before washout and PAE calculated as T-C, wherein T=time required for treated cells to increase 1 log CFU/mL; and C=time required for non-treated control to increase 1 log CFU/ml. after washout with fresh medium. PAEs for D and A were both 40 min and for the rifampin control PAE was 180 mins. The rifampin PAE is in agreement with literature values.

Row | Compound | MIC (S. aureus (ATCC 25923)) [µg/mL] | MIC (S. aureus (ATCC 29213)) [µg/mL] | MIC (S. aureus (ATCC 33591)) [µg/mL] | MIC (S. aureus (ATCC 33592)) [µg/mL] | MIC [4] [µg/mL] | MIC (VISA-5827) [µg/mL] | MIC (VISA-5836) [µg/mL] | also measured
1 | NCC(O)CNC(=O)c1cc(-c2c[nH]c3ccc(Br)cc23)nc2cc(Cl)cc(Cl)c12 (stereo not drawn) [Entry 11] | < 7 | < 7 | < 7 | < 7 | – | – | – | –
2 | NCc1ccc(CNC(=O)c2cc(-c3c[nH]c4ccc(Br)cc34)nc3ccccc23)cc1 [Example 284] | – | – | – | – | – | – | – | MIC [1]: < 7 µg/mL
3 | NCCNC(=O)c1cc(-c2c[nH]c3ccc(Br)cc23)nc2ccc(Cl)cc12 [Example 286] | – | – | – | – | – | – | – | MIC (Streptococcus pneumoniae): < 7 µg/mL; MIC [1]: < 7 µg/mL; MIC [2]: < 7 µg/mL
4 | NCCNC(=O)c1cc(-c2c[nH]c3ccc(Br)cc23)nc2cc(I)ccc12 [Example 296] | – | – | – | – | – | – | – | MIC (Streptococcus pneumoniae): < 7 µg/mL; MIC [1]: < 7 µg/mL; MIC [2]: < 7 µg/mL
5 | NCCNC(=O)c1cc(-c2c[nH]c3ccc(Br)cc23)nc2c(I)cccc12 [Example 320] | – | – | – | – | – | – | – | MIC (Streptococcus pneumoniae): < 7 µg/mL; MIC [1]: < 7 µg/mL; MIC [2]: < 7 µg/mL
6 | Cn1cc(-c2cc(C(=O)NCc3ccc(CN)cc3)c3ccc(F)cc3n2)c2cc(Br)ccc21 [Example 323] | – | – | – | – | – | – | – | MIC (Streptococcus pneumoniae): < 7 µg/mL; MIC [1]: < 7 µg/mL; MIC [2]: < 25 µg/mL
7 | CCOC(=O)n1cc(-c2cc(C(=O)NCc3cccc(CN)c3)c3cc(I)ccc3n2)c2cc(Br)ccc21 [Example 324] | – | – | – | – | – | – | – | MIC (Streptococcus pneumoniae): > 25 µg/mL; MIC [1]: > 25 µg/mL; MIC [2]: > 25 µg/mL
8 | Cn1cc(-c2cc(C(=O)NCCN)c3ccc(I)cc3n2)c2cc(Br)ccc21 [Example 329] | – | – | – | – | – | – | – | MIC (Streptococcus pneumoniae): < 7 µg/mL; MIC [1]: < 7 µg/mL; MIC [2]: < 7 µg/mL
9 | O=C(O)c1cn(C2CC2)c2cc(N3CCNCC3)c(F)cc2c1=O [ciprofloxacin] | – | – | – | – | – | – | – | bactericidal mechanism of action (lytic versus non-lytic) (S. aureus 8325-4 [3]): non-lytic
10 | NCc1ccc(CNC(=O)c2cc(-c3c[nH]c4ccc(Br)cc34)nc3ccccc23)cc1 [compound 1] | – | – | – | – | < 7 | < 7 | < 7 | –
11 | COc1ccc(NC(=O)c2cc(-c3c[nH]c4ccc(Br)cc34)nc3ccc(C#CCN4CCCCC4)cc23)cc1 [compound 2] | < 7 | < 7 | < 7 | < 7 | – | – | – | –
12 | COC(=O)c1cc(-c2c[nH]c3ccc(Br)cc23)nc2cc(F)ccc12 [compound 3] | < 7 | < 7 | < 7 | < 7 | – | – | – | –
13 | COC(=O)c1cc(-c2c[nH]c3ccc(Br)cc23)nc2cc(F)ccc12 [compound 4] | – | – | – | – | < 7 | < 7 | < 7 | –
14 | NCCNC(=O)c1cc(-c2c[nH]c3ccc(Br)cc23)nc2cc(Cl)c(C#CCN3CCCCC3)cc12 [compound 4] | < 7 | < 7 | < 7 | < 7 | – | – | – | –
15 | COc1ccc2nc(-c3c[nH]c4ccc(Cl)cc34)ccc2c1 [compound 5] | < 7 | < 7 | < 7 | < 7 | – | – | – | –
16 | NCCNC(=O)c1cc(-c2c[nH]c3ccc(Br)cc23)nc2cc(Cl)c(C#CCN3CCCCC3)cc12 [compound 5] | – | – | – | – | < 7 | < 7 | < 7 | –
17 | COc1ccc2nc(-c3c[nH]c4ccc(Cl)cc34)ccc2c1 [compound 6] | – | – | – | – | < 7 | < 7 | < 7 | –
18 | OCc1cc(-c2c[nH]c3ccc(Br)cc23)nc2cc(F)ccc12 [compound 6] | < 7 | < 7 | < 7 | < 7 | – | – | – | –
19 | NCc1cc(-c2c[nH]c3ccc(Br)cc23)nc2cc(Cl)ccc12 [compound 7] | < 7 | < 7 | < 7 | < 7 | – | – | – | –
20 | OCc1cc(-c2c[nH]c3ccc(Br)cc23)nc2cc(F)ccc12 [compound 7] | – | – | – | – | < 7 | < 7 | < 7 | –
21 | Brc1ccc2[nH]cc(-c3nc4ccc(C#CCN5CCCCC5)cc4c4c3CCO4)c2c1 [compound 9] | – | – | – | – | < 7 | < 7 | < 7 | –
22 | CO[C@H]1/C=C/O[C@@]2(C)Oc3c(C)c(O)c4c(O)c(c(/C=N/N5CCN(C)CC5)c(O)c4c3C2=O)NC(=O)/C(C)=C\C=C\[C@H](C)[C@H](O)[C@@H](C)[C@@H](O)[C@@H](C)[C@H](OC(C)=O)[C@@H]1C [rifampin] | – | – | – | – | – | – | – | bactericidal mechanism of action (lytic versus non-lytic) (S. aureus 8325-4 [3]): non-lytic; post-antibiotic effect (PAE) (S. aureus 8325-4 [5]): 180 min

Now from value to compound, other results behind:

Row | MIC (S. aureus (ATCC 25923)) [µg/mL] | MIC (S. aureus (ATCC 29213)) [µg/mL] | MIC (S. aureus (ATCC 33591)) [µg/mL] | MIC (S. aureus (ATCC 33592)) [µg/mL] | MIC [4] [µg/mL] | MIC (VISA-5827) [µg/mL] | MIC (VISA-5836) [µg/mL] | Compound | also measured
23 | < 7 | < 7 | < 7 | < 7 | – | – | – | NCc1ccc(CNC(=O)c2cc(-c3c[nH]c4ccc(Br)cc34)nc3ccc(C#CCN4CCCCC4)cc23)cc1 [compound 1] | –
24 | – | – | – | – | < 7 | < 7 | < 7 | NCc1ccc(CNC(=O)c2cc(-c3c[nH]c4ccc(Br)cc34)nc3ccc(C#CCN4CCCCC4)cc23)cc1 [compound 2] | –
25 | – | – | – | – | < 7 | < 7 | < 7 | COc1ccc(NC(=O)c2cc(-c3c[nH]c4ccc(Br)cc34)nc3ccc(C#CCN4CCCCC4)cc23)cc1 [compound 3] | –
26 | < 7 | < 7 | < 7 | < 7 | – | – | – | Brc1ccc2[nH]cc(-c3nc4ccc(C#CCN5CCCCC5)cc4c4c3CCO4)c2c1 [compound 8] | –
27 | – | – | – | – | < 7 | < 7 | < 7 | NCc1cc(-c2c[nH]c3ccc(Br)cc23)nc2cc(Cl)ccc12 [compound 8] | –
28 | < 25 | < 7 | < 7 | > 25 | – | – | – | CC(C)CNC(=O)c1cc(-c2c[nH]c3ccc(Br)cc23)nc2ccc(C#CCN3CCCCC3)cc12 [compound 9] | –
29 | < 7 | < 7 | < 7 | < 7 | < 7 | < 7 | < 7 | CN(CC[N+](C)(C)C)C(=O)c1cc(-c2c[nH]c3ccc(Br)cc23)nc2cc(Cl)ccc12 [compound 10] | –
